Experimental data taken from patent US20250019375A1, “BENZOTHIAZOLE DYES” (Detect, Inc., priority 2023, published 2025).

Legend:
[1] = system: Neisseria gonorrhoeae (AQ10); assay: qLAMP assay, Neisseria gonorrhoeae (AQ10), time to positive (Tp); format: biochemical
Description: Compounds were added to the LAMP reaction mixture containing target-specific primers, dNTPs, DNA polymerase, reverse transcriptase, and the target RNA sequence. This reaction mixture was incubated at 62° C. (or the specified temperature (FIG. 4)) for at least 50 minutes and the increase in fluorescence was assessed to determine the time to positivity (Tp). Data shown in FIGS. 1A-B support that these compounds are compatible with LAMP assays at concentrations up to 16 μM.
For the Neisseria gonorrhoeae (AQ10), there is detrimental impact on Tp observed with Compound 5 at ≥8 μM where a delay in Tp is observed.
Data shown is under clean and eluted vaginal swabs (contrived conditions). Good performance is observed at ≥61° C. There is detrimental impact on performance at <60° C. (delay in Tp).

[2] = Accelerated stability of lyophilized dye, assayed by HPLC; format: physicochemical
Description: It was also determined that Compound 3 is stable under accelerated stability conditions from lyophilized chemistry (FIG. 5). As assayed by HPLC, Compound 3 is stable under these conditions at the 3-month time point (98.7±0.33% remaining), corresponding to 6 months stability at room temperature (15-30° C.).

[3] = system: double stranded DNA (dsDNA); assay: Absorption/emission spectra of dyes with dsDNA; format: physicochemical; details: for Stokes shift: 2 μM dye + 2 μM hairpin DNA; for Stokes shift / λem: pH 8.8 isoamplification buffer; for λabs: absorption recorded at 25±2° C.; for λem: fluorescence at 62±2° C.
Description: FIG. 6A-F show absorption/emission spectra of dyes with double stranded DNA (dsDNA).
Fluorescence readings (FIGS. 6A-F) were performed using 10 mm path length, 700 μL quartz cuvettes on Horiba Fluorolog-Q fluorometer instrument. All measurements were taken at elevated temperature (62±2° C.) in pH 8.8 isoamplification buffer containing 20 mM Tris-HCl. For each measurement, 2 μM of dye was combined with 2 μM of hairpin DNA. Absorption spectra were recorded at ambient temperature (25±2° C.) on a DeNovix DS-11 spectrophotometer instrument. Normalized spectra are shown for clarity. The benzothiazole dye compounds have large Stokes shift >40 nm, which allows a substantial portion of the output fluorescence to pass through the filter covering the photodiode detection component of the device.

[4] = clean and eluted vaginal swabs (contrived conditions)

SMILES	Stokes shift [3] [nm]	λabs [3] [nm]	λem [3] [nm]	temperature of good performance [1, 4] [°C]	temperature with detrimental impact on performance (delay in Tp) [1, 4] [°C]	% remaining ([2]; 40° C., lyophilized, 3-month time point, HPLC) [%]	corresponding stability at room temperature ([2]; room temperature (15-30° C.), extrapolated from 3 months accelerated conditions) [months]	concentration with detrimental impact on Tp (delay in Tp) ([1]; Neisseria gonorrhoeae (AQ10) LAMP, 62° C.) [µM]
COc1ccc2c(c1)S/C(=C\c1cc[n+](C)c(N3CCOCC3)c1)N2C [Compound 3]	50	448	498	≥ 61	< 60	98.7±0.33	6	
COc1ccc2c(c1)S/C(=C\c1cc[n+](C)c(-c3ccccc3)c1)N2C [Compound 5]								≥ 8

More lines, main results first:

Stokes shift [3] [nm]	λabs [3] [nm]	λem [3] [nm]	SMILES	temperature of good performance [1, 4] [°C]	temperature with detrimental impact on performance (delay in Tp) [1, 4] [°C]	% remaining ([2]; 40° C., lyophilized, 3-month time point, HPLC) [%]	corresponding stability at room temperature ([2]; room temperature (15-30° C.), extrapolated from 3 months accelerated conditions) [months]	concentration with detrimental impact on Tp (delay in Tp) ([1]; Neisseria gonorrhoeae (AQ10) LAMP, 62° C.) [µM]
38	442	480	CN1/C(=C/c2cc[n+](C)c(N3CCOCC3)c2)Sc2ccccc21 [Compound 8]					
38	443	481	CN(C)c1cc(/C=C2\Sc3ccccc3N2C)cc[n+]1C [Compound 10]					
43	510	553	COc1ccc2c(c1)S/C(=C\c1cc[n+](C)c3ccccc13)N2C [Compound 11]					
